According to paper PMC6238539, “Discovery of a cofactor-independent inhibitor of Mycobacterium tuberculosis InhA” (Life Science Alliance, 2018):
Converted amounts (≈) assume the structure as drawn. “And” between values parts separate entries of the source, which are not always exact repeats. Equal values may be shown once. Read-outs that look alike come from different tables or passages of the source.

Legend:
[1] = test system: M. tuberculosis inhA promoter and coding sequence mutants; details: cited from earlier work
M. tuberculosis H37Rv = assay type: cell-based, Mycobacterium tuberculosis
[2] = test system: M. tuberculosis inhA promoter and coding sequence mutants; assay type: cell-based, Mycobacterium tuberculosis; details: read-out: Liquid IC90
[3] = test system: M. tuberculosis drug-resistant clinical isolates; assay: microbe, parasite or virus in culture; assay type: cell-based; details: Mycobacterium tuberculosis
[4] = test system: M. tuberculosis H37Rv-resistant mutants; assay type: cell-based, Mycobacterium tuberculosis; details: read-out: Liquid media IC90
M. tuberculosis = details: cited from earlier work
[5] = strains of Table 3, ref McNeil et al, 2017

Oc1cc(Cl)ccc1Oc1ccc(Cl)cc1Cl [triclosan]
cross-resistance of the mutants [1, 5]: None of the mutants demonstrated cross-resistance

N#Cc1ccc(Oc2ccc3c(c2)COB3O)c(/C=N/O)c1 [AN3438]
frequency of resistance (M. tuberculosis H37Rv): 6.5 × 10^−7

CCS(=O)(=O)N1N=Cc2ccc(Oc3ccc(C(F)(F)F)cc3/C=N/O)cc2B1O [AN12855]
frequency of resistance (M. tuberculosis H37Rv): 6.5 × 10^−7 | IC90 [2]: 0.06 µM | MIC ([3]; H37RV, read-out: MIC): 0.13 µg/mL (≈ 0.295 µM) | MIC ([3]; read-out: MIC): 0.25 µg/mL (≈ 0.567 µM)

CO[C@H]1/C=C/O[C@@]2(C)Oc3c(C)c(O)c4c(O)c(c(/C=N/N5CCN(C)CC5)c(O)c4c3C2=O)NC(=O)/C(C)=C\C=C\[C@H](C)[C@H](O)[C@@H](C)[C@@H](O)[C@@H](C)[C@H](OC(C)=O)[C@@H]1C [RIF, rifampicin]
MIC [3]: > 16 µg/mL | MIC ([3]; H37RV): < 0.06 µg/mL

NNC(=O)c1ccncc1 [INH, isoniazid]
IC90 [4]: 0.3 µM and 0.1 µM and 0.4 µM | MIC ([3]; H37RV, read-out: MIC): < 0.06 µg/mL | IC90 ([1]; strain H37Rv (WT), ref McNeil et al (2017), read-out: Liquid IC90): 0.1 µM | Liquid IC90 (fold shift versus WT) ([1]; strain LP-0532543-RM1, InhA S94A, ref McNeil et al (2017)): 2× | Liquid IC90 (fold shift versus WT) ([1]; strain LP-0532543-RM2, InhA D148E, ref McNeil et al (2017)): 1× | Liquid IC90 (fold shift versus WT) ([1]; strain LP-0532543-RM3, InhA A206E, ref McNeil et al (2017)): 1× | Liquid IC90 (fold shift versus WT) ([1]; strain LP-0532543-RM4, InhA M161L, ref McNeil et al (2017)): 1× | Liquid IC90 (fold shift versus WT) ([1]; strain LP-0532543-RM6, InhA M103T, ref McNeil et al (2017)): 1× | Liquid IC90 (fold shift versus WT) ([1]; strain LP-0532543-RM7, InhA G205A, ref McNeil et al (2017)): 1× | Liquid IC90 (fold shift versus WT) ([1]; strain LP-0532543-RM9, InhA I202F, ref McNeil et al (2017)): 1× | Liquid IC90 (fold shift versus WT) ([1]; strain LP-0532543-RM11, InhA G205S, ref McNeil et al (2017)): 1× | Liquid IC90 (fold shift versus WT) ([1]; strain LP-0532543-RM13, InhA F41L, ref McNeil et al (2017)): 1× | Liquid IC90 (fold shift versus WT) ([1]; strain LP-0532543-RM14, InhA G212D, ref McNeil et al (2017)): 1× | Liquid IC90 (fold shift versus WT) ([1]; strain LP-0532543-RM16, InhA I215S, ref McNeil et al (2017)): 1× | Liquid IC90 (fold shift versus WT) ([1]; strain LP-0532543-RM18, InhA S19W, ref McNeil et al (2017)): 1× | Liquid IC90 (fold shift versus WT) ([1]; strain LP-0532543-RM19, InhA I47L, ref McNeil et al (2017)): 1× | Liquid IC90 (fold shift versus WT) ([1]; strain LP-0532543-RM28, InhA I21M, ref McNeil et al (2017)): 1× | Liquid IC90 (fold shift versus WT) ([1]; strain LP-0532543-RM30, fabG1inhA promoter c-15t, ref McNeil et al (2017)): 5× | Liquid IC90 (fold shift versus WT) ([1]; strain LP-0532543-RM34, InhA I21V, ref McNeil et al (2017)): 2× | Liquid IC90 (fold shift versus WT) ([1]; strain LP-0532543-RM37, InhA L269R, ref McNeil et al (2017)): 1× | Liquid IC90 (fold shift versus WT) ([1]; strain LP-0532543-RM41, InhA R195G, ref McNeil et al (2017)): 2× | Liquid IC90 (fold shift versus WT) ([1]; strain LP-0532543-RM301, promoter c-15t, InhA N159K, ref McNeil et al (2017)): 3× | Liquid IC90 (fold shift versus WT) ([1]; strain LP-0532543-RM304, promoter c-15t, InhA T162M, ref McNeil et al (2017)): 4× | Liquid IC90 (fold shift versus WT) ([1]; strain LP-0532543-RM311, promoter c-15t, InhA M161V, ref McNeil et al (2017)): 5× | Liquid IC90 (fold shift versus WT) ([1]; strain LP-0532543-RM313, promoter c-15t, InhA G205D, ref McNeil et al (2017)): 2× | Liquid IC90 (fold shift versus WT) ([1]; strain LP-0532543-RM314, promoter c-15t, InhA I47M, ref McNeil et al (2017)): 5× | Liquid IC90 (fold shift versus WT) ([1]; strain LP-0532543-RM318, promoter c-15t, InhA M199L, ref McNeil et al (2017)): 4× | Liquid IC90 (fold shift versus WT) ([1]; strain LP-0532543-RM320, promoter c-15t, InhA G208D, ref McNeil et al (2017)): 4× | Liquid IC90 (fold shift versus WT) ([1]; strain LP-0571426-RM24, InhA I194T, ref McNeil et al (2017)): 3× | frequency of resistance (M. tuberculosis): 1 × 10^−5

CC1(C)CCC(Cc2cc(O)c(-c3ccccc3)c(=O)[nH]2)CC1 [NITD-916]
resistance of inhA / fabG1inhA promoter mutant strains [1, 5]: resistant | frequency of resistance (M. tuberculosis; ref Manjunatha et al, 2015, Martínez-Hoyos et al, 2016): 1 × 10^−8
